Key:
Type in all cases: cell-based
WEE1 = molecular target: T1, WEE1 (Homo sapiens, UniProt P30291+Q96SW2); assay: Western-blot assay, substrate protein degradation in hPBMCs: WEE1; conditions: for substrate protein remaining % WEE1: 24 hours of compound treatment, 50 nM and 500 nM; for WEE1 substrate protein remaining %: compounds at 50 nM and 500 nM, 24 hours
T1 construct: effects of the compounds of the present disclosure on the expression of target proteins in cells; endogenous in cells; host or cells: human PBMCs (hPBMCs)
T1 sequence (P30291 whole entry): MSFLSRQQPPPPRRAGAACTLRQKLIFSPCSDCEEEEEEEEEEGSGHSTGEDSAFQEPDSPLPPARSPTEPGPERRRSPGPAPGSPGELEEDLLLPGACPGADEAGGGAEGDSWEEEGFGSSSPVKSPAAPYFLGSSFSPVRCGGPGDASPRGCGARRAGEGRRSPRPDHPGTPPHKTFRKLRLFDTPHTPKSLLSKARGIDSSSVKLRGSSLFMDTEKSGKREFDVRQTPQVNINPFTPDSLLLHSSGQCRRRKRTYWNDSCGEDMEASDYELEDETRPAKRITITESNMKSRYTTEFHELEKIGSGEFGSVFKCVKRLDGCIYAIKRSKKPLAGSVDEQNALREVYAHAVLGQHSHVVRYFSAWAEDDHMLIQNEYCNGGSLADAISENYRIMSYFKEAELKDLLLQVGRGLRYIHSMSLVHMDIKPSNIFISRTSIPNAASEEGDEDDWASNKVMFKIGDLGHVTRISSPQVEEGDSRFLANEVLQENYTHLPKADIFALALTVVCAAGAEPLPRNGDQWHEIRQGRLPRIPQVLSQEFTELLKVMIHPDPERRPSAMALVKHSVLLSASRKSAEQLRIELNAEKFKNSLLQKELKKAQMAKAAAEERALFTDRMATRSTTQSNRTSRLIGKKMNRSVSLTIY
T1 sequence (Q96SW2 whole entry): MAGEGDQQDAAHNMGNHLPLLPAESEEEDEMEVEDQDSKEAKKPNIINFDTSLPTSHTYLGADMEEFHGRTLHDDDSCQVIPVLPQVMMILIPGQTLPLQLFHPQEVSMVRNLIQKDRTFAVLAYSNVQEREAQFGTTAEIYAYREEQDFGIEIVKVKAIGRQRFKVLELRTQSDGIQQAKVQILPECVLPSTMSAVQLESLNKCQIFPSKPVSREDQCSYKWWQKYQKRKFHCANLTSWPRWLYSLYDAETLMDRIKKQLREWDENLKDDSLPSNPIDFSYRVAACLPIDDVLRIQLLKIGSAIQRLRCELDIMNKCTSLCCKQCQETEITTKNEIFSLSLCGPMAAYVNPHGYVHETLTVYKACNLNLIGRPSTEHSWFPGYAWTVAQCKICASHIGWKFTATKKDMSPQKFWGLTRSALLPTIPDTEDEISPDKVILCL
T1 sequence (Q16531 whole entry partner): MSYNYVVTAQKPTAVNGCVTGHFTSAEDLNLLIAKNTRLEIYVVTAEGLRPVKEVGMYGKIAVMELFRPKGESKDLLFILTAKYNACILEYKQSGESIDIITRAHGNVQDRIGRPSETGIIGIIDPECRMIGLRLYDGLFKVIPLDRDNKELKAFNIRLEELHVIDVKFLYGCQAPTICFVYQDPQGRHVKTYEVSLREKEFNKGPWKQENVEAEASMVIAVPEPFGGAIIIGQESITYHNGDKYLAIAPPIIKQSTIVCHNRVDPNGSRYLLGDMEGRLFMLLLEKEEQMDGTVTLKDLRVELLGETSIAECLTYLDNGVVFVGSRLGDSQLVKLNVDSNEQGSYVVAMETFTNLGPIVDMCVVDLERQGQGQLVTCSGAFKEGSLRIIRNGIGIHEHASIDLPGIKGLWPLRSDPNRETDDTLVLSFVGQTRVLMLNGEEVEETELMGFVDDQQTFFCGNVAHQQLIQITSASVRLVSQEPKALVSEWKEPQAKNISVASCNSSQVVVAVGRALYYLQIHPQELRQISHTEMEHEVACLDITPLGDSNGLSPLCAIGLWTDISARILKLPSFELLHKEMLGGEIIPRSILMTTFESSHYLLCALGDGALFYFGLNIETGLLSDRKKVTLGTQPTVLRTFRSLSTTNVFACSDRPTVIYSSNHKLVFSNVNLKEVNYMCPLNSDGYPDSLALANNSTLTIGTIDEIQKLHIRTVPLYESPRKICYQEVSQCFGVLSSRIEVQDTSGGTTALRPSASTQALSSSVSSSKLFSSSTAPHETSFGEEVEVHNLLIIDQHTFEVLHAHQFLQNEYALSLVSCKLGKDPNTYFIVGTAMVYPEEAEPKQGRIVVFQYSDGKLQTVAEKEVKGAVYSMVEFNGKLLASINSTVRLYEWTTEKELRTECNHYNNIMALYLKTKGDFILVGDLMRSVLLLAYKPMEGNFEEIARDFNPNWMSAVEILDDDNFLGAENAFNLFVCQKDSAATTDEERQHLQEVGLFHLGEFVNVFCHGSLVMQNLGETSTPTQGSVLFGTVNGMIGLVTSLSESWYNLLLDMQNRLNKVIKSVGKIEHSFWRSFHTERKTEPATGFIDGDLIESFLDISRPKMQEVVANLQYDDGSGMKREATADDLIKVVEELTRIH

IKZF1 = molecular target: T2, IKZF1 (Homo sapiens, UniProt Q13422+Q96SW2); assay: Western-blot assay, substrate protein degradation in hPBMCs: IKZF1; conditions: for substrate protein remaining % IKZF1: 24 hours of compound treatment, 50 nM and 500 nM; for IKZF1 substrate protein remaining %: compounds at 50 nM and 500 nM, 24 hours
T2 construct: effects of the compounds of the present disclosure on the expression of target proteins in cells; endogenous in cells; host or cells: human PBMCs (hPBMCs)

IKZF2 = molecular target: T3, IKZF2 (Homo sapiens, UniProt Q96SW2+Q9UKS7); assay: Western-blot assay, substrate protein degradation in hPBMCs: IKZF2; conditions: for substrate protein remaining % IKZF2: 24 hours of compound treatment, 50 nM and 500 nM; for IKZF2 substrate protein remaining %: compounds at 50 nM and 500 nM, 24 hours
T3 construct: effects of the compounds of the present disclosure on the expression of target proteins in cells; endogenous in cells; host or cells: human PBMCs (hPBMCs)
T3 sequence (Q9UKS7 whole entry): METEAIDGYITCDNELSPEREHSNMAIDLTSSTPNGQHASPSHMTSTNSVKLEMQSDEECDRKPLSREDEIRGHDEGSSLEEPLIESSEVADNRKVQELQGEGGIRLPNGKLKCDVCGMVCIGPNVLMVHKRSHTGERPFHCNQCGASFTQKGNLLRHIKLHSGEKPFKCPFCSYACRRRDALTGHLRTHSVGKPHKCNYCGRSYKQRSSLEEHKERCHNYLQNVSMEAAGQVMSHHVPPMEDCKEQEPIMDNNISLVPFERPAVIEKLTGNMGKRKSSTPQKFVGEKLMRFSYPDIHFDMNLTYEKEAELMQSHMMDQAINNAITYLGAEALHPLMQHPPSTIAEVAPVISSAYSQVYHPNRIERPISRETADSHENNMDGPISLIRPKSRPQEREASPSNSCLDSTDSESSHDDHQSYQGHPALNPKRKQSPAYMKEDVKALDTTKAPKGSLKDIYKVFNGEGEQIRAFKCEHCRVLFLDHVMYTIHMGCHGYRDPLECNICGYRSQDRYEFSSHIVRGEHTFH
T3 sequence (Q96SW2 whole entry): as the sequence (Q96SW2 whole entry) above
T3 sequence (Q16531 whole entry partner): as the sequence (Q16531 whole entry partner) above

IKZF3 = molecular target: T4, IKZF3 (Homo sapiens, UniProt Q96SW2+Q9UKT9); assay: Western-blot assay, substrate protein degradation in hPBMCs: IKZF3; conditions: for substrate protein remaining % IKZF3: 24 hours of compound treatment, 50 nM and 500 nM; for IKZF3 substrate protein remaining %: compounds at 50 nM and 500 nM, 24 hours
T4 construct: effects of the compounds of the present disclosure on the expression of target proteins in cells; endogenous in cells; host or cells: human PBMCs (hPBMCs)
T4 sequence (Q9UKT9 whole entry): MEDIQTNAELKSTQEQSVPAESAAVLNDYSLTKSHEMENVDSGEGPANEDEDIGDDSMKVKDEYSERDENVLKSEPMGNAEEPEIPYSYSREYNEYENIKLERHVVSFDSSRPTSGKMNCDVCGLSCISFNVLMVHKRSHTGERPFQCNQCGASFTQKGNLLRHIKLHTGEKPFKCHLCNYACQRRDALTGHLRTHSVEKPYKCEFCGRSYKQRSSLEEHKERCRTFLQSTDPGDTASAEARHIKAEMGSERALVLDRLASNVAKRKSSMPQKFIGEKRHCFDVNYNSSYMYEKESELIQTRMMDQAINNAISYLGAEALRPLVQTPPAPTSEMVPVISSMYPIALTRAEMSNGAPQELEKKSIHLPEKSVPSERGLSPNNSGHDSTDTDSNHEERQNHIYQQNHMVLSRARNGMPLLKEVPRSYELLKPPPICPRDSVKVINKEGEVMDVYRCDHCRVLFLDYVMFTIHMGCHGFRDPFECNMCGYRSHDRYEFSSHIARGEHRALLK
T4 sequence (Q96SW2 whole entry): as the sequence (Q96SW2 whole entry) above
T4 sequence (Q16531 whole entry partner): as the sequence (Q16531 whole entry partner) above

CK1α = molecular target: T5, CK1α (Homo sapiens, UniProt P48729+Q96SW2); assay: Western-blot assay, substrate protein degradation in hPBMCs: CK1α; conditions: for substrate protein remaining % CK1α: 24 hours of compound treatment, 50 nM and 500 nM; for CK1α substrate protein remaining %: compounds at 50 nM and 500 nM, 24 hours
T5 construct: effects of the compounds of the present disclosure on the expression of target proteins in cells; endogenous in cells; host or cells: human PBMCs (hPBMCs)
T5 sequence (P48729 whole entry): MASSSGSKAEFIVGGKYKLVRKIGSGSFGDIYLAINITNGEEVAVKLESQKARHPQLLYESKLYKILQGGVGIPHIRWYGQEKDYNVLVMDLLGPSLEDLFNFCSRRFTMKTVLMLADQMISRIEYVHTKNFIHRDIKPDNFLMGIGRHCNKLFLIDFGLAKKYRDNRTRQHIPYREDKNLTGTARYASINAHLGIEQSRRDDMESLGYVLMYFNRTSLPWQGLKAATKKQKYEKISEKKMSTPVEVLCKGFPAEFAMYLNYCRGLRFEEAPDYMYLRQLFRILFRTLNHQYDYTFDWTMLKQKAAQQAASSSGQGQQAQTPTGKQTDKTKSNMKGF
T5 sequence (Q96SW2 whole entry): as the sequence (Q96SW2 whole entry) above
T5 sequence (Q16531 whole entry partner): as the sequence (Q16531 whole entry partner) above

GSPT1 = molecular target: T6, GSPT1 (Homo sapiens, UniProt P15170+Q96SW2); assay: Western-blot assay, substrate protein degradation in hPBMCs: GSPT1; conditions: for substrate protein remaining % GSPT1: 24 hours of compound treatment, 50 nM and 500 nM; for GSPT1 substrate protein remaining %: compounds at 50 nM and 500 nM, 24 hours
T6 construct: effects of the compounds of the present disclosure on the expression of target proteins in cells; endogenous in cells; host or cells: human PBMCs (hPBMCs)
T6 sequence (P15170 whole entry): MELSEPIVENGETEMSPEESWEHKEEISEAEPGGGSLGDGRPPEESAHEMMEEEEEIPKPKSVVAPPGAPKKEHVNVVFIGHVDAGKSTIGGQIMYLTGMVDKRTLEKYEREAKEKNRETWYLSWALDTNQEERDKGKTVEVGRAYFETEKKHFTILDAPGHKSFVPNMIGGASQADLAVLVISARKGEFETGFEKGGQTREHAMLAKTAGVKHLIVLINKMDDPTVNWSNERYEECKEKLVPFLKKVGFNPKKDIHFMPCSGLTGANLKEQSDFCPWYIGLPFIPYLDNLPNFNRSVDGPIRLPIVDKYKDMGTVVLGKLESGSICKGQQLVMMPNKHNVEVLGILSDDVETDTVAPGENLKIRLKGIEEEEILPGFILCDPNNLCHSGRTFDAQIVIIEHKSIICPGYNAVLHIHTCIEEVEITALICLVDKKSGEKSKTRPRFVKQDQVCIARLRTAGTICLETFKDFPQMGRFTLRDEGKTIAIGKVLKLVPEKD
T6 sequence (Q96SW2 whole entry): as the sequence (Q96SW2 whole entry) above
T6 sequence (Q16531 whole entry partner): as the sequence (Q16531 whole entry partner) above

## O=C1CCN(N2C(=O)c3ccc(CN4CCN(c5noc6ccncc56)CC4)cc3C2=O)C(=O)N1 [GT-07525, 2-(2,4-dioxotetrahydropyrimidin-1(2H)-yl)-5-((4-(isoxazolo[4,5-c]pyridin-3-yl)piperazin-1-yl)methyl)isoindoline-1,3-dione]
WEE1
  substrate protein remaining % WEE1: B (80%< substrate protein remaining %≤ 100%)
IKZF1
  substrate protein remaining % IKZF1: B (80%< substrate protein remaining %≤ 100%)
IKZF2
  substrate protein remaining % IKZF2: B (80%< substrate protein remaining %≤ 100%)
IKZF3
  substrate protein remaining % IKZF3: B (80%< substrate protein remaining %≤ 100%)
CK1α
  substrate protein remaining % CK1α: A (0% ≤ substrate protein remaining % ≤ 80%)
GSPT1
  substrate protein remaining % GSPT1: A (0% ≤ substrate protein remaining % ≤ 80%)

## O=C1CCN(N2Cc3cc(CN4CCN(c5c(Cl)cccc5Cl)CC4)ccc3C2=O)C(=O)N1 [GT-06774, 1-(5-((4-(2,6-dichlorophenyl)piperazin-1-yl)methyl)-1-oxoisoindolin-2-yl)dihydropyrimidine-2,4(1H,3H)-dione]
WEE1
  WEE1 substrate protein remaining %: B ("B" is defined as 80%< substrate protein remaining %≤ 100%)
IKZF1
  IKZF1 substrate protein remaining %: B ("B" is defined as 80%< substrate protein remaining %≤ 100%)
IKZF2
  IKZF2 substrate protein remaining %: A ("A" is defined as 0% ≤ substrate protein remaining % ≤ 80%)
IKZF3
  IKZF3 substrate protein remaining %: A ("A" is defined as 0% ≤ substrate protein remaining % ≤ 80%)
CK1α
  CK1α substrate protein remaining %: A ("A" is defined as 0% ≤ substrate protein remaining % ≤ 80%)
GSPT1
  GSPT1 substrate protein remaining %: A ("A" is defined as 0% ≤ substrate protein remaining % ≤ 80%)

## O=C1CCN(N2Cc3cc(CN4CC(c5ccnc6cc(F)ccc56)C4)ccc3C2=O)C(=O)N1 [GT-07711, 1-(5-((3-(7-fluoroquinolin-4-yl)azetidin-1-yl)methyl)-1-oxoisoindolin-2-yl)dihydropyrimidine-2,4(1H,3H)-dione]
WEE1
  substrate protein remaining % WEE1: B (80%< substrate protein remaining %≤ 100%)
IKZF1
  substrate protein remaining % IKZF1: A (0% ≤ substrate protein remaining % ≤ 80%)
IKZF2
  substrate protein remaining % IKZF2: A (0% ≤ substrate protein remaining % ≤ 80%)
IKZF3
  substrate protein remaining % IKZF3: A (0% ≤ substrate protein remaining % ≤ 80%)
CK1α
  substrate protein remaining % CK1α: A (0% ≤ substrate protein remaining % ≤ 80%)
GSPT1
  substrate protein remaining % GSPT1: A (0% ≤ substrate protein remaining % ≤ 80%)

## CC1(C)CC(c2ccc(Cl)cc2)=C(CN2CCN(Cc3ccc4c(c3)CN(N3CCC(=O)NC3=O)C4=O)CC2)CO1 [GT-07332, 1-(5-((4-((4-(4-chlorophenyl)-6,6-dimethyl-5,6-dihydro-2H-pyran-3-yl)methyl)piperazin-1-yl)methyl)-1-oxoisoindolin-2-yl)dihydropyrimidine-2,4(1H,3H)-dione]
WEE1
  substrate protein remaining % WEE1: A (0% ≤ substrate protein remaining % ≤ 80%)
IKZF1
  substrate protein remaining % IKZF1: A (0% ≤ substrate protein remaining % ≤ 80%)
IKZF2
  substrate protein remaining % IKZF2: B (80%< substrate protein remaining %≤ 100%)
IKZF3
  substrate protein remaining % IKZF3: A (0% ≤ substrate protein remaining % ≤ 80%)
CK1α
  substrate protein remaining % CK1α: B (80%< substrate protein remaining %≤ 100%)
GSPT1
  substrate protein remaining % GSPT1: A (0% ≤ substrate protein remaining % ≤ 80%)

## Cc1ccc(C2=CCN(Cc3ccc4c(c3)C(=O)N(N3CCC(=O)NC3=O)C4=O)CC2)s1 [GT-05310, 2-(2,4-dioxotetrahydropyrimidin-1(2H)-yl)-5-((4-(5-methylthiophen-2-yl)-3,6-dihydropyridin-1(2H)-yl)methyl)isoindoline-1,3-dione]
WEE1
  WEE1 substrate protein remaining %: B ("B" is defined as 80%< substrate protein remaining %≤ 100%)
IKZF1
  IKZF1 substrate protein remaining %: B ("B" is defined as 80%< substrate protein remaining %≤ 100%)
IKZF2
  IKZF2 substrate protein remaining %: B ("B" is defined as 80%< substrate protein remaining %≤ 100%)
IKZF3
  IKZF3 substrate protein remaining %: B ("B" is defined as 80%< substrate protein remaining %≤ 100%)
CK1α
  CK1α substrate protein remaining %: B ("B" is defined as 80%< substrate protein remaining %≤ 100%)
GSPT1
  GSPT1 substrate protein remaining %: A ("A" is defined as 0% ≤ substrate protein remaining % ≤ 80%)

## CC1(C)CCC(CN2CC3CC2CN3Cc2ccc3c(c2)CN(N2CCC(=O)NC2=O)C3=O)=C(c2ccc(Cl)cc2)C1 (stereo not drawn) [GT-07329, 1-(5-((5-((4'-chloro-5,5-dimethyl-3,4,5,6-tetrahydro-[1,1'-biphenyl]-2-yl)methyl)-2,5-diazabicyclo[2.2.1]heptan-2-yl)methyl)-1-oxoisoindolin-2-yl)dihydropyrimidine-2,4(1H,3H)-dione]
WEE1
  substrate protein remaining % WEE1: A (0% ≤ substrate protein remaining % ≤ 80%)
IKZF1
  substrate protein remaining % IKZF1: B (80%< substrate protein remaining %≤ 100%)
IKZF2
  substrate protein remaining % IKZF2: B (80%< substrate protein remaining %≤ 100%)
IKZF3
  substrate protein remaining % IKZF3: B (80%< substrate protein remaining %≤ 100%)
CK1α
  substrate protein remaining % CK1α: B (80%< substrate protein remaining %≤ 100%)
GSPT1
  substrate protein remaining % GSPT1: A (0% ≤ substrate protein remaining % ≤ 80%)

## O=C1CCN(N2Cc3cc(CN4CCC(c5c[nH]c6ncccc56)CC4)ccc3C2=O)C(=O)N1 [GT-07576, 1-(5-((4-(1H-pyrrolo[2,3-b]pyridin-3-yl)piperidin-1-yl)methyl)-1-oxoisoindolin-2-yl)dihydropyrimidine-2,4(1H,3H)-dione]
WEE1
  substrate protein remaining % WEE1: A (0% ≤ substrate protein remaining % ≤ 80%)
IKZF1
  substrate protein remaining % IKZF1: A (0% ≤ substrate protein remaining % ≤ 80%)
IKZF2
  substrate protein remaining % IKZF2: A (0% ≤ substrate protein remaining % ≤ 80%)
IKZF3
  substrate protein remaining % IKZF3: B (80%< substrate protein remaining %≤ 100%)
CK1α
  substrate protein remaining % CK1α: A (0% ≤ substrate protein remaining % ≤ 80%)
GSPT1
  substrate protein remaining % GSPT1: A (0% ≤ substrate protein remaining % ≤ 80%)

## Cc1sc2ncnc(C3=CCN(Cc4ccc5c(c4)C(=O)N(N4CCC(=O)NC4=O)C5=O)CC3)c2c1C [GT-05273, 5-((4-(5,6-dimethylthieno[2,3-d]pyrimidin-4-yl)-3,6-dihydropyridin-1(2H)-yl)methyl)-2-(2,4-dioxotetrahydropyrimidin-1(2H)-yl)isoindoline-1,3-dione]
WEE1
  WEE1 substrate protein remaining %: B ("B" is defined as 80%< substrate protein remaining %≤ 100%)
IKZF1
  IKZF1 substrate protein remaining %: B ("B" is defined as 80%< substrate protein remaining %≤ 100%)
IKZF2
  IKZF2 substrate protein remaining %: A ("A" is defined as 0% ≤ substrate protein remaining % ≤ 80%)
IKZF3
  IKZF3 substrate protein remaining %: B ("B" is defined as 80%< substrate protein remaining %≤ 100%)
CK1α
  CK1α substrate protein remaining %: B ("B" is defined as 80%< substrate protein remaining %≤ 100%)
GSPT1
  GSPT1 substrate protein remaining %: B ("B" is defined as 80%< substrate protein remaining %≤ 100%)

## COc1ccccc1N1CCN(Cc2ccc3c(c2)C(=O)N(N2CCC(=O)NC2=O)C3=O)CC1 [GT-06720, 2-(2,4-dioxotetrahydropyrimidin-1(2H)-yl)-5-((4-(2-methoxyphenyl)piperazin-1-yl)methyl)isoindoline-1,3-dione]
WEE1
  WEE1 substrate protein remaining %: B ("B" is defined as 80%< substrate protein remaining %≤ 100%)
IKZF1
  IKZF1 substrate protein remaining %: B ("B" is defined as 80%< substrate protein remaining %≤ 100%)
IKZF2
  IKZF2 substrate protein remaining %: B ("B" is defined as 80%< substrate protein remaining %≤ 100%)
IKZF3
  IKZF3 substrate protein remaining %: A ("A" is defined as 0% ≤ substrate protein remaining % ≤ 80%)
CK1α
  CK1α substrate protein remaining %: B ("B" is defined as 80%< substrate protein remaining %≤ 100%)
GSPT1
  GSPT1 substrate protein remaining %: B ("B" is defined as 80%< substrate protein remaining %≤ 100%)
